From US12161748B2, “Topical formulations comprising tofacitinib” (TWi Biotechnology, Inc., priority 2018, dated 2024)
Where a name gives a salt, the structure may show the parent alone.

Legend:
[1] = Solubility study of tofacitinib citrate in various solvents (HPLC); format: physicochemical; details: for solubility: thermodynamic from solid
Procedure: A solubility study was conducted in the course of formulation development. The suspension was stirred overnight and filtered through 0.22 μm filter. The filtrate was diluted into suitable concentration.

[2] = Compatibility study of dissolved tofacitinib citrate with excipients, 60° C. seven days, HPLC; format: physicochemical; details: 1 Week
Source text: The total degradation products in the mixtures were further analyzed by HPLC.

Solubility Descriptive Term ([1]; 0.1N HCl): Sparingly | solubility ([1]; 0.1N HCl, simulated gastric fluid): 23900 µg/mL | Solubility Descriptive Term ([1]; Dimethyl sulfoxide (DMSO)): Freely soluble | Solubility Descriptive Term ([1]; Dimethyl sulfoxide (DMSO), listed as tofacitinib citrate): freely soluble | Solubility Descriptive Term ([1]; Ethanol): Very slightly | Solubility Descriptive Term ([1]; Ethanol, listed as tofacitinib citrate): very slightly soluble | Solubility Descriptive Term ([1]; H2O): Slightly soluble | Solubility Descriptive Term ([1]; H2O, listed as tofacitinib citrate): slightly soluble | Solubility Descriptive Term ([1]; Propylene Glycol (PG)): Slightly soluble | Solubility Descriptive Term ([1]; Propylene Glycol (PG), listed as tofacitinib citrate): slightly soluble | solubility ([1]; aqueous buffer, pH 3.0, 50 mM Citrate Buffer): 600 µg/mL | solubility ([1]; aqueous buffer, pH 4.5, 50 mM Acetate Buffer): 1810 µg/mL | solubility ([1]; aqueous buffer, pH 6.8, 50 mM Phosphate Buffer): 120 µg/mL | solubility ([1]; aqueous buffer, pH 7.5, 50 mM Phosphate Buffer): 120 µg/mL | solubility ([1]; aqueous buffer, pH 9.0, 50 mM Phosphate Buffer): 120 µg/mL | solubility ([1]; aqueous with cosolvent or surfactant or cyclodextrin, pH 4.5, 50 mM Acetate Buffer/PEG300 = 70/30): 3160 µg/mL | solubility ([1]; aqueous with cosolvent or surfactant or cyclodextrin, pH 7.5, 50 mM Phosphate Buffer/PEG300 = 70/30): 1590 µg/mL | solubility ([1]; dimethyl sulfoxide (DMSO), organic solvent or mixture): > 100000 µg/mL | solubility ([1]; ethanol, organic solvent or mixture): 480 µg/mL | Solubility Descriptive Term ([1]; pH 3.0, 50 mM Citrate Buffer): Very slightly | Solubility Descriptive Term ([1]; pH 4.5, 50 mM Acetate Buffer): Slightly soluble | Solubility Descriptive Term ([1]; pH 4.5, 50 mM Acetate Buffer/PEG300 = 70/30): Slightly soluble | Solubility Descriptive Term ([1]; pH 6.8, 50 mM Phosphate Buffer): Very slightly | Solubility Descriptive Term ([1]; pH 7.5, 50 mM Phosphate Buffer): Very slightly | Solubility Descriptive Term ([1]; pH 7.5, 50 mM Phosphate Buffer/PEG300 = 70/30): Slightly soluble | Solubility Descriptive Term ([1]; pH 9.0, 50 mM Phosphate Buffer): Very slightly | solubility ([1]; propylene glycol (PG), organic solvent or mixture): 1920 µg/mL | solubility ([1]; water, H2O): 3000 µg/mL | Total Degradation Products [2]: 0.06%
SMILES: C[C@@H]1CCN(C(=O)CC#N)C[C@@H]1N(C)c1ncnc2[nH]ccc12 [Tofacitinib Citrate, 3-((3R,4R)-4-methyl-3-[methyl-(7H-pyrrolo[2,3-d]pyrimidin-4-yl)-amino]-piperidin-1-yl)-3-oxopropionitrile]
